System: 349418-098-R-PDC complex spheroid growth
Test: Anticancer human tumor 349418-098-R-PDC patient-derived lung adenocarcinoma cell line growth inhibition [AhR]
Conditions: for IC50: curve of first compound; for viability, T/C: stronger effect = lower value
Summary of the method: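 Spheroids combined tumor cells with HUVEC endothelial cells and human MSCs as stroma. AhR antagonists were paired with standard or investigational drugs, each dosed in half-log steps down from near clinical Cmax, or from 10 microM where Cmax was unknown.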

[1] = second compound 0.1 µM, first compound 0.0316 µM
[2] = second compound 0.1 µM, first compound 0.1 µM
[3] = second compound 0.1 µM, first compound 0.316 µM
[4] = second compound 0.1 µM, first compound 1 µM
[5] = second compound 0.1 µM, first compound 3.16 µM
[6] = second compound 0.1 µM, first compound 10 µM
[7] = second compound 0.316 µM, first compound 0.0316 µM
[8] = second compound 0.316 µM, first compound 0.1 µM
[9] = second compound 0.316 µM, first compound 0.316 µM
[10] = second compound 0.316 µM, first compound 1 µM
[11] = second compound 0.316 µM, first compound 3.16 µM
[12] = second compound 0.316 µM, first compound 10 µM
[13] = second compound 1 µM, first compound 0.0316 µM
[14] = second compound 1 µM, first compound 0.1 µM
[15] = second compound 1 µM, first compound 0.316 µM
[16] = second compound 1 µM, first compound 1 µM
[17] = second compound 1 µM, first compound 3.16 µM
[18] = second compound 1 µM, first compound 10 µM
[19] = second compound 3.16 µM, first compound 0.0316 µM
[20] = second compound 3.16 µM, first compound 0.1 µM
[21] = second compound 3.16 µM, first compound 0.316 µM
[22] = second compound 3.16 µM, first compound 1 µM
[23] = second compound 3.16 µM, first compound 3.16 µM
[24] = second compound 3.16 µM, first compound 10 µM
[25] = second compound 10 µM, first compound 0.0316 µM
[26] = second compound 10 µM, first compound 0.1 µM
[27] = second compound 10 µM, first compound 0.316 µM
[28] = second compound 10 µM, first compound 1 µM
[29] = second compound 10 µM, first compound 3.16 µM
[30] = second compound 10 µM, first compound 10 µM
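Note: spheroids exposed to agents for seven days before luminescence viability read.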

`Nc1ccn(C2OC(CO)C(O)C2(F)F)c(=O)n1` (stereo not given) + Cc1ccccc1N=Nc1ccc(NC(=O)c2ccnn2C)c(C)c1 showed an IC50 (second compound 0.1 µM) of under 31.6 nM, an IC50 (second compound 0.316 µM) of under 31.6 nM and an IC50 (second compound 1 µM) of under 31.6 nM. The IC50 (second compound 3.16 µM) was under 31.6 nM, the IC50 (second compound 10 µM) was under 31.6 nM and the viability, T/C [1] was 15.1%. It also gave a viability, T/C [2] of 14.6%, a viability, T/C [3] of 13.6% and a viability, T/C [4] of 12.1%. It also gave a viability, T/C [5] of 11.3%, a viability, T/C [6] of 8.74% and a viability, T/C [7] of 15.9%. The viability, T/C [8] was 13.5%, the viability, T/C [9] was 14.6% and the viability, T/C [10] was 13.1%. For the same compound, the viability, T/C [11] was 11.2%, the viability, T/C [12] was 9.73% and the viability, T/C [13] was 15.7%. The viability, T/C [14] was 14.8%, the viability, T/C [15] was 15.3% and the viability, T/C [16] was 11.7%. The viability, T/C [17] was 14.3%, the viability, T/C [18] was 11.4% and the viability, T/C [19] was 14.9%. For the same compound, the viability, T/C [20] was 16.4%, the viability, T/C [21] was 13.1% and the viability, T/C [22] was 12.7%. The viability, T/C [23] was 13%, the viability, T/C [24] was 10.1% and the viability, T/C [25] was 17.9%. It also gave a viability, T/C [26] of 17.4%, a viability, T/C [27] of 16.7% and a viability, T/C [28] of 14.1%. For the same compound, the viability, T/C [29] was 13.4% and the viability, T/C [30] was 12.2%.
For `O=C(C=Cc1cccc(S(=O)(=O)Nc2ccccc2)c1)NO` + Cc1ccccc1N=Nc1ccc(NC(=O)c2ccnn2C)c(C)c1, the IC50 (second compound 0.1 µM) was 772 nM, the IC50 (second compound 0.316 µM) was 706 nM and the IC50 (second compound 1 µM) was 597 nM. For the same compound, the IC50 (second compound 3.16 µM) was 671 nM, the IC50 (second compound 10 µM) was 331 nM and the viability, T/C [1] was 132%. For the same compound, the viability, T/C [2] was 119%, the viability, T/C [3] was 73% and the viability, T/C [4] was 47.6%. The viability, T/C [5] was 10.4%, the viability, T/C [6] was 1.93% and the viability, T/C [7] was 126%. For the same compound, the viability, T/C [8] was 108%, the viability, T/C [9] was 82.8% and the viability, T/C [10] was 36.1%. The viability, T/C [11] was 8.81%, the viability, T/C [12] was 1.91% and the viability, T/C [13] was 109%. The viability, T/C [14] was 122%, the viability, T/C [15] was 69.3% and the viability, T/C [16] was 33.3%. For the same compound, the viability, T/C [17] was 8.25%, the viability, T/C [18] was 2.09% and the viability, T/C [19] was 94%. It also gave a viability, T/C [20] of 94.1%, a viability, T/C [21] of 78.3% and a viability, T/C [22] of 34.7%. The viability, T/C [23] was 8.53%, the viability, T/C [24] was 2.35% and the viability, T/C [25] was 74.7%. For the same compound, the viability, T/C [26] was 72.5%, the viability, T/C [27] was 50% and the viability, T/C [28] was 22.9%. For the same compound, the viability, T/C [29] was 8.56% and the viability, T/C [30] was 2.05%.
`O=C(c1cc(Cc2n[nH]c(=O)c3ccccc23)ccc1F)N1CCN(C(=O)C2CC2)CC1` + Cc1ccccc1N=Nc1ccc(NC(=O)c2ccnn2C)c(C)c1 gave an IC50 (second compound 0.1 µM) of 2020 nM, an IC50 (second compound 0.316 µM) of 6200 nM and an IC50 (second compound 1 µM) of 2810 nM. It also gave an IC50 (second compound 3.16 µM) of 661 nM, an IC50 (second compound 10 µM) of 1430 nM and a viability, T/C [1] of 81.3%. For the same compound, the viability, T/C [2] was 73.2%, the viability, T/C [3] was 91.4% and the viability, T/C [4] was 62.1%. The viability, T/C [5] was 44.9%, the viability, T/C [6] was 39.6% and the viability, T/C [7] was 98%. The viability, T/C [8] was 89%, the viability, T/C [9] was 108% and the viability, T/C [10] was 64%. It also gave a viability, T/C [11] of 66.3%, a viability, T/C [12] of 41.4% and a viability, T/C [13] of 106%. For the same compound, the viability, T/C [14] was 82.4%, the viability, T/C [15] was 69.7% and the viability, T/C [16] was 62.8%. It also gave a viability, T/C [17] of 49.4%, a viability, T/C [18] of 39.9% and a viability, T/C [19] of 76.9%. It also gave a viability, T/C [20] of 69.9%, a viability, T/C [21] of 63.4% and a viability, T/C [22] of 41.8%. For the same compound, the viability, T/C [23] was 41.3%, the viability, T/C [24] was 43% and the viability, T/C [25] was 56.4%. For the same compound, the viability, T/C [26] was 53.1%, the viability, T/C [27] was 50.9% and the viability, T/C [28] was 60.1%. It also gave a viability, T/C [29] of 38.8% and a viability, T/C [30] of 31.4%.

Reference: PubChem BioAssay AID1918996 (Molecular Pharmacology Branch, DTP, NCI, 2023)
